Marks after values point to notes of the source that are not given here.
Columns and labels:
[1] = system: metastatic colorectal cancer; test: Phase II randomized trial, bevacizumab added to bolus 5-FU/LV, first-line, non-optimal candidates for irinotecan: efficacy and quality of life; format: in vivo, human
Source text: Patients with histologically confirmed, previously untreated, measurable metastatic colorectal cancer were eligible if, in the judgment of the investigator, they were not optimal candidates for first-line irinotecan-containing therapy and had at least one of the following characteristics: age above 65 years, ECOG PS of 1 or 2, serum albumin equal or less than 3.5 g/dL, or prior radiotherapy to abdomen or pelvis. […] All patients provided written informed consent for their participation.
A dynamic randomization algorithm was utilized to achieve balance overall and within each of the following categories: study center, baseline ECOG performance status (0 vs. ≧1), site of primary disease (colon vs. rectum), and number of metastatic sites (1 vs. >1). The 5-FU/LV treatment, comprising LV 500 mg/m^2 over 2 hours and 5-FU 500 mg/m^2 as a bolus midway through the LV infusion (Roswell Park regimen; Petrelli et al. (1989) J. Clin. Oncol. 7:1419-1426), was administered weekly for the first 6 weeks of each 8-week cycle. Chemotherapy was continued until study completion (96 weeks) or disease progression. […] At the time of disease progression, patients were unblinded to their treatment assignment and could receive any second-line treatment at the discretion of the investigator. […] After completing the study, patients were followed for any subsequent treatment and survival every 4 months until death, loss to follow-up, or termination of the study.
Patients underwent an assessment of tumor status at baseline and at completion of every 8-week cycle using appropriate radiographic techniques, typically spiral CT scanning. Tumor response, or progression, was determined by both the investigator and an independent radiology facility (IRF) utilizing the Response Evaluation Criteria in Solid Tumors. Therasse et al. (2000). The IRF assessment was performed without knowledge of the treatment assignment or investigator assessment. In addition, patients completed the Functional Assessment of Cancer Therapy—Colorectal (FACT-C), Version 4, a validated instrument for assessing quality of life (QOL) in colorectal cancer patients, at baseline and prior to each treatment cycle until disease progression. Ward et al. (1999) Qual. Life Res. 8:181-195.
The primary outcome measure was duration of overall survival. Secondary outcome measures included progression-free survival, objective response rate (complete and partial), response duration, and change in the FACT-C QOL score. Survival duration was defined as the time from randomization to death. For patients alive at the time of analysis, duration of survival was censored at the date of last contact. Progression-free survival was defined as the time from randomization to the earlier of disease progression or death on study, defined as death from any cause within 30 days of the last dose of study drug or chemotherapy. For patients alive without disease progression at the time of analysis, progression-free survival was censored at their last tumor assessment, or day 1 (the first day of study treatment) if no postbaseline assessment was performed. In the analysis of objective response, patients without tumor assessments were categorized as nonresponders. Disease progression and response analyses were based on the IRF assessments. Change in quality of life was analyzed as time to deterioration in QOL (TDQ), defined as the length of time from randomization to a the earliest of a ≧3-point decrease from baseline in colon-cancer specific FACT-C subscale score (CCS), disease progression, or death on study. TDQ was also determined for the TOI-C (sum of CCS, physical and functional well-being) and total FACT-C for changes from baseline of 7 and 9 points, respectively.
A two-tailed, log-rank test at the 0.05 level of significance with 80% power and two interim analyses were assumed in the calculations. Interim analyses were conducted by an unblinded, independent Data Monitoring Committee (DMC).

[2] = system: metastatic colorectal cancer; test: Phase II randomized trial, bevacizumab added to bolus 5-FU/LV: safety; format: in vivo
Description: Safety was assessed from reports of adverse events, laboratory test results, and vital sign measurements. Adverse events and abnormal laboratory results were categorized using the National Cancer Institute Common Toxicity Criteria (NCI-CTC), Version 2.
A two-tailed, log-rank test at the 0.05 level of significance with 80% power and two interim analyses were assumed in the calculations. Interim analyses were conducted by an unblinded, independent Data Monitoring Committee (DMC). A safety interim analysis was conducted after 44 deaths and a second safety and efficacy interim analysis was conducted after 89 deaths. The interim efficacy analysis was governed by a formal group sequential stopping rule based on an O'Brien-Fleming spending function. Kaplan-Meier methodology was applied to estimate the median survival, progression free survival, and duration of response time for each treatment group. […] A two-sided stratified log rank test was used to compare the two groups. Stratified analyses included baseline ECOG performance status, site of primary disease, and the number of metastatic sites. Objective response rates were compared by the Chi-squared test. As exploratory analyses, the Cox proportional hazards model was used to estimate the effect of risk factors on modifications of treatment effect for duration of survival and progression-free survival. Efficacy analyses were performed on the intent-to-treat population, defined as all randomized patients. Safety analyses included all patients who received at least one dose of study drug.

[3] = system: CRC; conditions: retrospective subset analysis; cited from earlier work
[4] = system: metastatic colorectal cancer; conditions: patients who progressed following 5-FU therapy; cited from earlier work
[5] = system: metastatic colorectal cancer; test: Phase III randomized trial, bevacizumab added to bolus IFL: safety (adverse events, NCI Common Toxicity Criteria v2); format: in vivo
Description: Safety was assessed on the basis of reports of adverse events, laboratory-test results, and vital sign measurements. Adverse events were categorized according to the Common Toxicity Criteria of the National Cancer Institute, version 2, in which a grade of 1 indicates mild adverse events, a grade of 2 moderate adverse events, a grade of 3 […] adverse events, and a grade of 4 life-threatening adverse events.
(§1) Efficacy analyses were performed according to the intention-to-treat principle. Safety analyses included all patients who received at least one dose of study medication.

[6] = system: metastatic colorectal cancer; test: Phase III randomized trial, bevacizumab added to bolus IFL, first-line: efficacy; format: in vivo, human; conditions: for Overall response rate: complete and partial responses, RECIST; for Median duration of response: in vivo; for Progression-free survival: median; for Median survival: overall survival, primary end point, bevacizumab 5 mg/kg every 2 wk or placebo with IFL
Source text: The trial enrolled over 900 patients with histologically confirmed, previously untreated, bi-dimensionally measurable metastatic colorectal cancer.
Eligible patients had histologically confirmed metastatic colorectal carcinoma, with bidimensionally measurable disease. Other inclusion criteria included an age of at least 18 years, an Eastern Cooperative Oncology Group (ECOG) performance status of 0 or 1 (Oken et al. (1982) Am. J. Clin. Oncol. 5:649-55), a life expectancy of more than three months, and written informed consent. Adequate hematologic, hepatic, and renal function (including urinary excretion of no more than 500 mg of protein per day) was also required.
Exclusion criteria included prior chemotherapy or biologic therapy for metastatic disease (adjuvant or radiosensitizing use of fluoropyrimidines with or without leucovorin or levamisole more than 12 months before study entry was permitted), receipt of radiotherapy within 14 days before the initiation of study treatment, major surgery within 28 days before the initiation of study treatment, clinically significant cardiovascular disease, clinically detectable ascites, pregnancy or lactation, regular use of aspirin (more than 325 mg per day) or other nonsteroidal […] agents, preexisting bleeding diatheses or coagulopathy or the need for full-dose anticoagulation, and known central nervous system metastases.
Eligible patients were assigned to treatment with the use of a dynamic randomization algorithm that was designed to achieve overall balance between groups; randomization was stratified according to study center, baseline ECOG performance status (0 vs. 1), site of primary disease (colon vs. rectum), and number of metastatic sites (one vs. more than one).
Tumor responses and progression were determined with the use of the Response Evaluation Criteria in Solid Tumors. Therasse et al. (2000) J. Natl. Cancer Inst. 92:205-16. […] No crossovers were allowed in the group given IFL plus placebo.
Bevacizumab (or placebo) was administered concomitantly with chemotherapy. […] Standard intracycle and intercycle dose modifications of irinotecan and fluorouracil (according to the package insert)’ were permitted in patients with treatment-related adverse events. The doses of leucovorin and bevacizumab were not altered.
After the baseline evaluation, tumor status was assessed every 6 weeks for the first 24 weeks of the study and then every 12 weeks for the remainder of therapy. All complete and partial responses required confirmation at least four weeks after they were first noted.
The primary outcome measure was the duration of overall survival; survival was measured without regard to subsequent treatments. There was no crossover between groups, however. Survival analysis techniques such as the Kaplan-Meier method, log-rank test, and Cox proportional hazards model were used. Secondary outcome measures were progression-free survival, objective response rates (complete and partial responses), the duration of responses, and the quality of life.
For patients who were alive at the time of analysis, data on survival were censored at the time of the last contact. […] For patients without disease progression at the time of the final analysis, data on progression-free survival were censored at the last assessment of tumor status or on day 0 if no further assessment was performed after baseline. Patients without adequate follow-up data were categorized as having no response.
All calculations were performed with the log-rank test and involved two-sided P values, with an alpha value of 0.05, a statistical power of 80 percent, and one interim analysis of efficacy.
as §1

[7] = addition of bevacizumab compared with 5-FU/LV alone

In the case of “5-FU/LV/Bevacizumab: 5-fluorouracil and leucovorin (Roswell Park regimen) given with bevacizumab 5 mg/kg every 2 weeks”, the “Median time to deterioration in QOL (TDQ), CCS score” value ([1]; FACT-C colon-cancer specific subscale) was 3.1 months, the Overall response rate ([1]; IRF assessment) was 26.0% and the Duration of response ([1]; median) was 9.2 months. It also gave a Progression-free survival ([1]; median, IRF assessment) of 9.2 months, a Median survival ([1]; overall survival, primary endpoint, intent-to-treat, bevacizumab 5 mg/kg every 2 weeks or placebo with 5-FU/LV (Roswell Park)) of 16.6 months and a Complete response ([1]; part of overall response rate) of 0%. The Partial response ([1]; part of overall response rate) was 26.0%, the “Median TDQ, TOI-C” value ([1]; secondary TDQ measure) was 3.2 months and the “Median TDQ, total FACT-C” value ([1]; secondary TDQ measure) was 3.6 months. For the same compound, the 60-day all-cause mortality ([2]; in vivo) was 5.0%, the “Arterial thrombotic events, number of patients” value ([2]; in vivo) was 10 patients and the “Bowel perforation event, number of patients” value ([2]; in vivo) was “Two”. For the same compound, the “Incidence of arterial thrombotic events” value ([2]; in vivo) was 10%, the “Proteinuria of any grade” value ([2]; in vivo) was 38% and the “Total grade 3 and 4 toxicities” value ([2]; safety population) was 87%. The “Median survival, subset aged ≧65 years” value [3] was 17.7 months, the “Median survival, subset with baseline PS 1 or 2” value [3] was 15.2 months and the “Median survival, subset with serum albumin<3.5” value [3] was 14.1 months.
In the case of `CCc1c2c(nc3ccc(OC(=O)N4CCC(N5CCCCC5)CC4)cc13)-c1cc3c(c(=O)n1C2)COC(=O)[C@]3(O)CC` [irinotecan], the “Prolongation of survival vs best supportive care” value [4] is listed as 2.8 month and the “Prolongation of survival vs infusional 5-FU” value [4] is listed as 2.2 month.
In the case of “IFL plus Bevacizumab: regimen of irinotecan, fluorouracil and leucovorin (IFL) given with bevacizumab 5 mg/kg every 2 wk”, the “Adverse event leading to hospitalization” value ([5]; in vivo) was 44.9%, the “Any grade 3 or 4 adverse event” value ([5]; in vivo) was 84.9** percent and the Any thrombotic event ([5]; in vivo) was 19.4%. The “Cases of grade 4 bleeding” value ([5]; in vivo) was “three”, the Deep thrombophletitis ([5]; in vivo) was 8.9% and the Gastrointestinal perforation ([5]; in vivo) was 1.5%. For the same compound, the “Gastrointestinal perforation, number of patients” value ([5]; in vivo) was “six”, the “Grade 3 or 4 bleeding” value ([5]; in vivo) was 3.1% and the “Grade 3 or 4 leukopenia” value ([5]; in vivo) was 37.0%. The “Hypertension, Any” value ([5]; in vivo) was 22.4** percent, the “Incidence of arterial thrombotic events” value ([5]; in vivo) was 3.3% and the “Proteinuria, Any” value ([5]; in vivo) was 26.5%. The “Proteinuria, Grade 2” value ([5]; in vivo) was 3.1%, the “Proteinuria, Grade 3” value ([5]; in vivo) was 0.8% and the Pulmonary embolus ([5]; in vivo) was 3.6%. For the same compound, the “Adverse event leading to death” value ([5]; incidence) was 2.6%, the “Death within 60 days” value ([5]; incidence) was 3.0% and the “Absolute improvement in the response rate” value ([6]; IFL plus bevacizumab vs IFL alone) was 10%. For the same compound, the “Reduction in the risk of death” value ([6]; bevacizumab group vs IFL plus placebo) was 34%, the Overall response rate [6] was 44.8% and the “Median duration of response” value [6] was 10.4 mo. It also gave an One-year survival rate ([6]; intention-to-treat) of 74.3%, a Progression-free survival ([6]; intention-to-treat) of 10.6 mo and a Median survival ([6]; intention-to-treat) of 20.3 mo. The Complete response ([6]; part of overall response rate) was 3.7%, the Partial response ([6]; part of overall response rate) was 41.0% and the “Median duration of overall survival, subgroup with second-line oxaliplatin” value ([6]; patients who received second-line treatment with oxaliplatin) was 25.1 months.
With “bevacizumab: recombinant humanized anti-VEGF monoclonal antibody generated according to Presta et al. (1997)” the “Effect on quality of life” value ([1]; FACT-C) was “no detrimental effect”, the “Prolongation of median survival” value [1, 7] was 3.7 months and the “Prolongation of progression-free survival” value [1, 7] was 3.7 months. The “Prolongation of response duration” value [1, 7] was 2.4 months, the “Increase in the median duration of survival attributable to bevacizumab” value ([6]; IFL plus bevacizumab vs IFL plus placebo) was 4.7 months and the Overall response rate [6] was 44.8%. For the same compound, the “Median duration of response” value [6] was 10.4 mo, the Progression-free survival ([6]; intention-to-treat) was 10.6 mo and the Median survival ([6]; intention-to-treat) was 20.3 mo.

Reference: patent publication US9795672B2, “Treatment with anti-VEGF antibodies” (Genentech, Inc., priority 2003, dated 2017)
